{"source": "patent US9956199B2", "about": "“Chromane-like cyclic prenylflavonoids for the medical intervention in neurological disorders” (priority 2011, dated 2018)", "key": {"[1]": {"tested_on": "PC12 cells", "test": "PC12 cobalt-chloride stress test, LDH release", "format": "cell-based, rat", "details": "CoCl2 300 μM, 24 hours; compounds 10 μM, NGF 100 ng/ml; FIG. 7B", "method": "(§1) For the neuroprotection assay PC12 cells were stressed with cobalt chloride 300 μM for 24 hours and the activity of Caspase 3/7 and LDH release were measured. NGF 50 ng/ml was used as a positive control for Caspase 3/7 activity and NGF 100 ng/ml was used as a positive control for LDH release.\n(§2) For the PC12-CoCl2-Assay PC12 cells were used (ATCC: CRL-1721 ™). These cells were growing in RPMI supplemented with 10% Horse Serum (heat inactivated) (Sigma Aldrich, Taufkirchen, Germany), 5% Fetal Bovine Serum (Lonza, Wuppertal, Germany), 2.5% Penicillin/Streptomycin and Glutamine (PAA, Pasching, Austria) as adherent cultures when the plates are coated with Poly-L-ornithine ([…] in water) for at least one hour at 37° C. For passaging PC12-cells were resuspended with Accutase (PAA, Pasching, Austria) for 10 minutes at 37° C. once a week.\n(§3) For all experiments cells were plated (quadruplicates) on Poly-L-ornithine-coated 96-well plates at a density of 10^4 cells per well. For Caspase 3/7-measurement cells were seeded in a white 96-well-plate to detect luminescence. As positive-control for neuroprotection Nerve Growth Factor (NGF) (50 ng/ml and 100 ng/ml) was used. To induce hypoxia CoCl2 (300 μM) was added to the cells after 20-24 hours. The control-treatment was compound 1a (ENDF1), compound 1b (ENDF3), compound 3a (ENDF2), ENDF4 or Osajin in the concentrations 1 μM and 10 μM in proliferation-media without CoCl2.\nFor LDH-release cells were centrifuged at 1050 rpm for 5 minutes. After 24 hours of stimulation, the supernatant was mixed in an equal amount with LDH-substrate and incubated in the dark for 30 minutes. Afterwards stop solution was added and absorbance was measured at 490 nm, the blank-values are subtracted."}, "[2]": {"tested_on": "PC12 cells", "test": "PC12 cobalt-chloride stress test, Caspase 3/7 activation", "format": "cell-based, rat", "details": "CoCl2 300 μM, 24 hours; compounds 10 μM, NGF 50 ng/ml; FIG. 7A", "method": "as §1, §2, §3\nFor Caspase 3/7-activation Caspase 3/7 substrate was added to the cells in an equal amount 22 hours after stimulation. Plates are incubated for 2 hours at room temperature in the dark, luminescence was measured 24 hours after stimulation and the blank-values are subtracted."}, "[3]": {"tested_on": "chicken dorsal root ganglion neurons", "test": "neurite outgrowth in primary chicken dorsal root ganglion neurons", "format": "cell-based", "details": "E8 and E15 DRG neurons, 12 to 24 hours; compound 1a 10 μM, NGF 20 ng/ml; GAP-43 staining", "method": "Dorsal root ganglion neurons comprise of an axon with two branches and are a good model for neuronal differentiation. Embryonic day 8 and 15 chicken dorsal root ganglions were examined for immunochemical staining with GAP43 after incubation with NGF 20 ng/ml and compound 1a (ENDF1) 10 μM to analyze whether compound 1a alone or in combination with the nerve growth factor enhances neurite outgrowth and branching.\nEmbryonic day (E) 8 and E15 chicken Dorsal Root Ganglions (DRGs) were prepared as described in: Aigner, 1993; Aigner, 1995. Briefly, foetuses were taken out of the egg, decapitated and the DRGs were targeted from the ventral side. The 10 lumbar region DRGs per foetus were dissected, and a total of 100 DRGs were collected in 10 ml DPBS in a 15 ml Falcon tube. DRGs were centrifuged 120×g for 3 min and then enzymatically treated with 1 ml trypsin 0.5 mg/ml+EDTA 0.22 mg/ml (PAA, Pasching, Austria) for 15 min. Then, 9 ml of DMEM 10% FCS were added to inactivate the trypsin and DRGs were centrifuged 120×g for 5 min. DRGs were resuspended and washed with 5 ml of DMEM 10% FCS, pipetted up and down to dissociate them, centrifuged, resuspended in 5 ml of DMEM 10% FCS and transferred into a 60 mm diameter cell culture dish. […]"}}, "note": "“Also recorded” adds a separate entry of the source.", "data": [{"substance": "NGF: Nerve Growth Factor, positive control for neuroprotection and neurite outgrowth", "values": [{"measurement": "protection from CoCl2 induced LDH release (cell death)", "setting": "[1]", "value": "partially protected; also recorded: slightly decrease the LDH release"}, {"measurement": "protection from CoCl2 induced Caspase 3/7 activity", "setting": "[2]", "value": "partially protected; also recorded: inhibits CoCl2 induced Caspase 3/7 activity"}, {"measurement": "neurite extension", "setting": "[3]", "value": "strongly promote neurite extension; also recorded: potent enhancer of neuronal differentiation"}]}]}
